Measurements reported in US8809341B2, “2,4-pyrimidinediamine compounds and uses as anti-proliferative agents” (Rigel Pharmaceuticals, Inc., priority 2003, dated 2014).
pIC50: −log10 of the molar value.

Columns and labels:
[1] = system: H1299 cells; assay: in vitro antiproliferation assay, H1299 (lung); assay type: cell-based; conditions: H1299 (lung) cells, antiproliferation
Outline: (§1)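 Standard in vitro antiproliferation assays on tumour cell lines, including A549 and H1299 (both lung); IC50 values determined.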

[2] = system: A549 cells; assay: in vitro antiproliferation assay, A549 (lung); assay type: cell-based; conditions: A549 (lung) cells, antiproliferation
Outline: as §1

Row | SMILES | pIC50 [1] | pIC50 [2]
1 | COC(=O)c1cc(Nc2ncc(F)c(Nc3cc(C(=O)OC)cc(-c4ncco4)c3)n2)cc(-c2ncco2)c1 [compound 891] | < 4.70 | < 4.70
2 | Cc1cc(C)cc(Nc2nc(Nc3cc(Cl)cc(Cl)c3)ncc2F)c1 [compound 898] | < 4.70 | < 4.70
3 | Cc1cc(C)cc(Nc2nc(Nc3cc(C)c(Cl)c(C)c3)ncc2F)c1 [compound 900] | < 4.70 | < 4.70
4 | COc1ccc(N(C)c2nc(Nc3cc(C)c(OC)c(Cl)c3)ncc2F)cc1Cl [compound 904] | < 4.70 | < 4.70
5 | CNC(=O)COc1c(C)cc(Nc2ncc(F)c(N(C)c3ccc(OC)c(Cl)c3)n2)cc1C [compound 905] | ≥ 4.70 | ≥ 4.70
6 | CNC(=O)COc1cccc(Nc2ncc(F)c(N(C)c3ccc(OC)c(Cl)c3)n2)c1 [compound 906] | ≥ 4.70 | ≥ 4.70
7 | COc1ccc(N(C)c2nc(Nc3ccc(C)cc3)ncc2F)cc1Cl [compound 907] | ≥ 4.70 | < 4.70
8 | COc1cc(N(C)c2nc(Nc3cc(C)cc(C)c3)ncc2F)ccc1Cl [compound 909] | ≥ 4.70 | ≥ 4.70
9 | CNC(=O)COc1cccc(Nc2ncc(F)c(N(C)c3ccc(Cl)c(OC)c3)n2)c1 [compound 910] | < 4.70 | ≥ 4.70
10 | Cc1cc(C)cc(Nc2ncc(F)c(N(C)c3cc(C)c(Cl)c(C)c3)n2)c1 [compound 912] | < 4.70 | < 4.70
11 | CNC(=O)COc1cccc(Nc2ncc(F)c(N(C)c3cc(C)c(Cl)c(C)c3)n2)c1 [compound 913] | ≥ 4.70 | ≥ 4.70
12 | Cc1cc(N(C)c2nc(Nc3cccc(-c4cnco4)c3)ncc2F)cc(C)c1Cl [compound 914] | < 4.70 | < 4.70
13 | CNC(=O)COc1ccc(Nc2nc(Nc3ccc(OC)c(Cl)c3)ncc2F)cc1Cl [compound 917] | ≥ 4.70 | ≥ 4.70
14 | CNC(=O)c1ccc(Nc2ncc(F)c(N(C)c3cc(C)c(Cl)c(C)c3)n2)cc1Cl [compound 921] | ≥ 4.70 | ≥ 4.70
15 | COc1cc(Nc2nc(Nc3cccc(-c4ncco4)c3)ncc2F)cc(OC)c1OC [compound 932] | ≥ 4.70 | ≥ 4.70
16 | COc1ccc(Nc2ncc(F)c(Nc3ccc(OCCCN4CCOCC4)c(C)c3)n2)cc1OC [compound 945] | ≥ 4.70 | ≥ 4.70
17 | CCOC(=O)COc1cccc(Nc2ncc(F)c(Nc3cc(C)c(O)c(Cl)c3)n2)c1 [compound 952] | ≥ 4.70 | < 4.70
18 | CC(C)c1cccc(Nc2ncc(F)c(Nc3cccc(C(C)C)c3)n2)c1 [compound 968] | ≥ 4.70 | < 4.70
19 | COc1ccc(Nc2ncc(F)c(Nc3cccc(O)c3)n2)cc1OC [compound 969] | ≥ 4.70 | ≥ 4.70
20 | CNC(=O)COc1cccc(Nc2ncc(F)c(Nc3cccc(CN)c3)n2)c1 [compound 970] | ≥ 4.70 | ≥ 4.70
21 | NC(=O)COc1ccc(Nc2nc(Nc3cccc(O)c3)ncc2F)cc1 [compound 974] | ≥ 4.70 | ≥ 4.70
22 | O=C(COc1cccc(Nc2ncc(F)c(Nc3ccc(N4CCOCC4)cc3)n2)c1)NC1CC1 [compound 988] | ≥ 4.70 | ≥ 4.70
23 | COC(=O)COc1cccc(Nc2ncc(F)c(Nc3ccc(N4CCOCC4)cc3)n2)c1 [compound 989] | ≥ 4.70 | ≥ 4.70

Next, values leading:

Row | pIC50 [1] | pIC50 [2] | SMILES
24 | ≥ 4.70 | ≥ 4.70 | CC(=O)c1cc(Nc2ncc(F)c(Nc3cccc(O)c3)n2)cc(-c2ncco2)c1 [compound 888]
25 | ≥ 4.70 | ≥ 4.70 | COc1ccc(Nc2nc(Nc3cc(-c4ncco4)cc(C(F)(F)F)c3)ncc2F)cc1OC [compound 889]
26 | ≥ 4.70 | ≥ 4.70 | Oc1cccc(Nc2nc(Nc3cccc(-c4ncon4)c3)ncc2F)c1 [compound 890]
27 | ≥ 4.70 | ≥ 4.70 | Fc1cnc(Nc2cc(-c3ncco3)cc(C(F)(F)F)c2)nc1Nc1cc(-c2ncco2)cc(C(F)(F)F)c1 [compound 892]
28 | ≥ 4.70 | ≥ 4.70 | Cc1cc(Nc2ncc(F)c(Nc3ccc(N4CCN(C)CC4)c(C)c3)n2)ccc1N1CCN(C)CC1 [compound 894]
29 | ≥ 4.70 | ≥ 4.70 | COc1cc(Nc2ncc(F)c(Nc3cc(C)cc(C)c3)n2)cc(OC)c1OC [compound 895]
30 | ≥ 4.70 | ≥ 4.70 | Cc1cc(C)cc(Nc2nc(Nc3cc(C)c(Cl)c(Cl)c3)ncc2F)c1 [compound 896]
31 | ≥ 4.70 | ≥ 4.70 | Cc1cc(C)cc(Nc2nc(Nc3cc(CO)cc(CO)c3)ncc2F)c1 [compound 897]
32 | ≥ 4.70 | ≥ 4.70 | Cc1cc(C)cc(Nc2nc(Nc3cc(Cl)c(Cl)c(Cl)c3)ncc2F)c1 [compound 899]
33 | ≥ 4.70 | ≥ 4.70 | CNC(=O)COc1c(C)cc(Nc2ncc(F)c(Nc3cc(OC)cc(OC)c3)n2)cc1C [compound 902]
34 | ≥ 4.70 | ≥ 4.70 | COc1cc(Nc2ncc(F)c(N(C)c3ccc(OC)c(Cl)c3)n2)cc(OC)c1 [compound 903]
